Values of other authors, collected in patent publication US6653293B1, “Methods, apparatuses and medicaments for treating body fluid related diseases” (priority 1992, dated 2003).

System: infected T-4 lymphocytes
Settings: in vitro, HIV-infected T-4 lymphocytes

Substance: tumor necrosis factor [TNF]
- death of infected cells: subjects the infected cells to death
- time to coagulation of DNA of the infected T-4 lymphocytes after administration: about 3 hours
